Assay results reported in ChEMBL document CHEMBL1158853, “Laurencia rigida: chemical investigations of its antifouling dichloromethane extract” (J Nat Prod, 1997).
Structures can show the parent of a compound that is named as a salt. The source made the active and inactive calls. The rule behind the calls is not given here.

Key:
Microbotryum violaceum [1] = test: Antifungal activity against Ustilago violacea at 33 ug by agar diffusion assay; type: functional; conditions: read-out: IZ
Mycotypha microspora [2] = test: Antifungal activity against Mycotypha microspora at 33 ug by agar diffusion assay; type: functional; conditions: read-out: IZ
[3] = test system: Aspergillus pseudoglaucus; test: Antifungal activity Eurotium repens at 33 ug by agar diffusion assay; type: functional; conditions: read-out: IZ
Fusarium oxysporum [4] = test: Antifungal activity against Fusarium oxysporum at 33 ug by agar diffusion assay; type: functional; conditions: read-out: IZ
Priestia megaterium [5] = test: Antibacterial activity against Bacillus megaterium at 33 ug by agar diffusion assay; type: functional; conditions: read-out: IZ
Escherichia coli [6] = test: Antibacterial activity against Escherichia coli at 33 ug by agar diffusion assay; type: functional; conditions: read-out: IZ
[Chlorella] fusca [7] = Antialgal activity against Chlorella fusca at 33 ug by agar diffusion assay; type: functional; conditions: Scenedesmus fuscus; read-out: IZ
Priestia megaterium [8] = test: Antibacterial activity against Bacillus megaterium at 65 ug by agar diffusion assay; type: functional; conditions: read-out: IZ
Escherichia coli [9] = test: Antibacterial activity against Escherichia coli at 65 ug by agar diffusion assay; type: functional; conditions: read-out: IZ
Mycotypha microspora [10] = test: Antifungal activity against Mycotypha microspora at 50 ug by agar diffusion assay; conditions: read-out: IZ
[11] = test system: Aspergillus pseudoglaucus; test: Antifungal activity Eurotium repens at 50 ug by agar diffusion assay; conditions: read-out: IZ
Fusarium oxysporum [12] = test: Antifungal activity against Fusarium oxysporum at 50 ug by agar diffusion assay; conditions: read-out: IZ
Microbotryum violaceum [13] = test: Antifungal activity against Ustilago violacea at 135 ug by agar diffusion assay; type: functional; conditions: read-out: IZ
Mycotypha microspora [14] = test: Antifungal activity against Mycotypha microspora at 135 ug by agar diffusion assay; type: functional; conditions: read-out: IZ
[15] = test system: Aspergillus pseudoglaucus; test: Antifungal activity Eurotium repens at 135 ug by agar diffusion assay; type: functional; conditions: read-out: IZ
Fusarium oxysporum [16] = test: Antifungal activity against Fusarium oxysporum at 135 ug by agar diffusion assay; type: functional; conditions: read-out: IZ
Priestia megaterium [17] = test: Antibacterial activity against Bacillus megaterium at 135 ug by agar diffusion assay; type: functional; conditions: read-out: IZ
Escherichia coli [18] = test: Antibacterial activity against Escherichia coli at 135 ug by agar diffusion assay; type: functional; conditions: read-out: IZ
Amphibalanus amphitrite = test: Toxicity in Balanus amphitrite nauplii larvae assessed as survival rate; type: organism-based; conditions: in vivo
[Chlorella] fusca [19] = Antialgal activity against Chlorella fusca at 135 ug by agar diffusion assay; type: functional; conditions: Scenedesmus fuscus; read-out: IZ
Microbotryum violaceum [20] = test: Antifungal activity against Ustilago violacea at 60 ug by agar diffusion assay; type: functional, organism-based
Mycotypha microspora [21] = test: Antifungal activity against Mycotypha microspora at 60 ug by agar diffusion assay; type: functional; conditions: read-out: IZ
[22] = test system: Aspergillus pseudoglaucus; test: Antifungal activity Eurotium repens at 60 ug by agar diffusion assay; type: functional; conditions: read-out: IZ
Fusarium oxysporum [23] = test: Antifungal activity against Fusarium oxysporum at 60 ug by agar diffusion assay; type: functional; conditions: read-out: IZ
Microbotryum violaceum [24] = test: Antifungal activity against Ustilago violacea at 25 ug by agar diffusion assay; type: functional; conditions: read-out: IZ
Mycotypha microspora [25] = test: Antifungal activity against Mycotypha microspora at 25 ug by agar diffusion assay; type: functional; conditions: read-out: IZ
[26] = test system: Aspergillus pseudoglaucus; test: Antifungal activity Eurotium repens at 25 ug by agar diffusion assay; type: functional; conditions: read-out: IZ
Fusarium oxysporum [27] = test: Antifungal activity against Fusarium oxysporum at 25 ug by agar diffusion assay; type: functional; conditions: read-out: IZ
Priestia megaterium [28] = test: Antibacterial activity against Bacillus megaterium at 25 ug by agar diffusion assay; type: functional; conditions: read-out: IZ
Escherichia coli [29] = test: Antibacterial activity against Escherichia coli at 25 ug by agar diffusion assay; type: functional; conditions: read-out: IZ
[Chlorella] fusca [30] = Antialgal activity against Chlorella fusca at 25 ug by agar diffusion assay; type: functional; conditions: Scenedesmus fuscus; read-out: IZ
Priestia megaterium [31] = test: Antibacterial activity against Bacillus megaterium at 50 ug by agar diffusion assay; type: functional, organism-based
Escherichia coli [32] = test: Antibacterial activity against Escherichia coli at 50 ug by agar diffusion assay; type: functional, organism-based
[Chlorella] fusca [33] = Antialgal activity against Chlorella fusca at 50 ug by agar diffusion assay; type: functional, organism-based; conditions: Scenedesmus fuscus
Microbotryum violaceum [34] = test: Antifungal activity against Ustilago violacea at 34 ug by agar diffusion assay; type: functional; conditions: read-out: IZ
Mycotypha microspora [35] = test: Antifungal activity against Mycotypha microspora at 34 ug by agar diffusion assay; type: functional; conditions: read-out: IZ
[36] = test system: Aspergillus pseudoglaucus; test: Antifungal activity Eurotium repens at 34 ug by agar diffusion assay; type: functional; conditions: read-out: IZ
Fusarium oxysporum [37] = test: Antifungal activity against Fusarium oxysporum at 34 ug by agar diffusion assay; type: functional; conditions: read-out: IZ
Priestia megaterium [38] = test: Antibacterial activity against Bacillus megaterium at 34 ug by agar diffusion assay; type: functional; conditions: read-out: IZ
Escherichia coli [39] = test: Antibacterial activity against Escherichia coli at 34 ug by agar diffusion assay; type: functional; conditions: read-out: IZ
[Chlorella] fusca [40] = Antialgal activity against Chlorella fusca at 34 ug by agar diffusion assay; type: functional; conditions: Scenedesmus fuscus; read-out: IZ
Priestia megaterium [41] = test: Antibacterial activity against Bacillus megaterium at 85 ug by agar diffusion assay; type: functional; conditions: read-out: IZ
Escherichia coli [42] = test: Antibacterial activity against Escherichia coli at 85 ug by agar diffusion assay; type: functional; conditions: read-out: IZ
Microbotryum violaceum [43] = test: Antifungal activity against Ustilago violacea at 40 ug by agar diffusion assay; type: functional; conditions: read-out: IZ
Mycotypha microspora [44] = test: Antifungal activity against Mycotypha microspora at 40 ug by agar diffusion assay; type: functional; conditions: read-out: IZ
[45] = test system: Aspergillus pseudoglaucus; test: Antifungal activity Eurotium repens at 40 ug by agar diffusion assay; type: functional; conditions: read-out: IZ
Fusarium oxysporum [46] = test: Antifungal activity against Fusarium oxysporum at 40 ug by agar diffusion assay; type: functional; conditions: read-out: IZ
Priestia megaterium [47] = test: Antibacterial activity against Bacillus megaterium at 40 ug by agar diffusion assay; type: functional; conditions: read-out: IZ
Escherichia coli [48] = test: Antibacterial activity against Escherichia coli at 40 ug by agar diffusion assay; type: functional; conditions: read-out: IZ
[Chlorella] fusca [49] = Antialgal activity against Chlorella fusca at 40 ug by agar diffusion assay; type: functional; conditions: Scenedesmus fuscus; read-out: IZ
Microbotryum violaceum [50] = test: Antifungal activity against Ustilago violacea at 45 ug by agar diffusion assay; type: functional; conditions: read-out: IZ
Mycotypha microspora [51] = test: Antifungal activity against Mycotypha microspora at 45 ug by agar diffusion assay; type: functional; conditions: read-out: IZ
[52] = test system: Aspergillus pseudoglaucus; test: Antifungal activity Eurotium repens at 45 ug by agar diffusion assay; type: functional; conditions: read-out: IZ
Fusarium oxysporum [53] = test: Antifungal activity against Fusarium oxysporum at 45 ug by agar diffusion assay; type: functional; conditions: read-out: IZ
Priestia megaterium [54] = test: Antibacterial activity against Bacillus megaterium at 45 ug by agar diffusion assay; type: functional; conditions: read-out: IZ
Escherichia coli [55] = test: Antibacterial activity against Escherichia coli at 45 ug by agar diffusion assay; type: functional; conditions: read-out: IZ
[Chlorella] fusca [56] = Antialgal activity against Chlorella fusca at 45 ug by agar diffusion assay; type: functional; conditions: Scenedesmus fuscus; read-out: IZ

Structure (SMILES): CC1=CC[C@]2(CC1)C(C)=C[C@@H](O)[C@H](Br)C2(C)C
- zone of inhibition at 33 µg/disc (Microbotryum violaceum [1]): 0 mm
- zone of inhibition at 33 µg/disc (Mycotypha microspora [2]): 3 mm
- zone of inhibition at 33 µg/disc [3]: 0 mm
- zone of inhibition at 33 µg/disc (Fusarium oxysporum [4]): 0 mm
- zone of inhibition at 33 µg/disc (Priestia megaterium [5]): 0 mm
- zone of inhibition at 33 µg/disc (Escherichia coli [6]): 0 mm
- zone of inhibition at 33 µg/disc ([Chlorella] fusca [7]): 3 mm

Structure (SMILES): CN[C@@H]1[C@H](O[C@H]2[C@H](O[C@H]3[C@H](O)[C@@H](O)[C@H](N=C(N)N)[C@@H](O)[C@@H]3N=C(N)N)O[C@@H](C)[C@]2(O)C=O)O[C@@H](CO)[C@H](O)[C@H]1O [STREPTOMYCIN SULFATE]
- zone of inhibition at 65 µg/disc (Priestia megaterium [8]): 5 mm
- zone of inhibition at 65 µg/disc (Escherichia coli [9]): 3 mm

Structure (SMILES): Clc1ccc(COC(Cn2ccnc2)c2ccc(Cl)cc2Cl)c(Cl)c1 (stereo unspecified) [MICONAZOLE NITRATE]
- zone of inhibition at 50 µg/disc (Mycotypha microspora [10]): 7 mm
- zone of inhibition at 50 µg/disc [11]: 18 mm
- zone of inhibition at 50 µg/disc (Fusarium oxysporum [12]): 1 mm

Structure (SMILES): C=C1C[C@H](O)[C@H](Br)C(C)(C)[C@@]12CCC(C)=C(Cl)C2 [ELATOL]
- zone of inhibition at 135 µg/disc (Microbotryum violaceum [13]): 3 mm
- zone of inhibition at 135 µg/disc (Mycotypha microspora [14]): 25 mm
- zone of inhibition at 135 µg/disc [15]: 25 mm
- zone of inhibition at 135 µg/disc (Fusarium oxysporum [16]): 7 mm
- zone of inhibition at 135 µg/disc (Priestia megaterium [17]): 2 mm
- zone of inhibition at 135 µg/disc (Escherichia coli [18]): 0 mm
- Activity (Amphibalanus amphitrite): Toxic
- zone of inhibition at 135 µg/disc ([Chlorella] fusca [19]): 0 mm

Structure (SMILES): C[C@@H]1C[C@@H]([C@H](O)CC2CC(=O)NC(=O)C2)C(=O)[C@@H](C)C1 [CYCLOHEXIMIDE]
- Activity (Microbotryum violaceum [20]): Active
- zone of inhibition at 60 µg/disc (Mycotypha microspora [21]): 4 mm
- zone of inhibition at 60 µg/disc [22]: 5 mm
- zone of inhibition at 60 µg/disc (Fusarium oxysporum [23]): 3 mm

Structure (SMILES): C=C1C[C@H](O)[C@H](Br)C(C)(C)[C@]12CC=C(C)CC2 [DESCHLOROELATOL]
- zone of inhibition at 25 µg/disc (Microbotryum violaceum [24]): 0 mm
- zone of inhibition at 25 µg/disc (Mycotypha microspora [25]): 20 mm
- zone of inhibition at 25 µg/disc [26]: 18 mm
- zone of inhibition at 25 µg/disc (Fusarium oxysporum [27]): 0 mm
- zone of inhibition at 25 µg/disc (Priestia megaterium [28]): 1 mm
- zone of inhibition at 25 µg/disc (Escherichia coli [29]): 0 mm
- zone of inhibition at 25 µg/disc ([Chlorella] fusca [30]): 2 mm
- Activity (Amphibalanus amphitrite): Toxic

Structure (SMILES): CC1=CC[C@@]2(CC1)C(C)=CC[C@@H](Br)C2(C)C
- Activity (Priestia megaterium [31]): inactive
- Activity (Escherichia coli [32]): inactive
- Activity ([Chlorella] fusca [33]): inactive

Structure (SMILES): CC(=O)OC(C=C(C)C)C/C(C)=C1/CC=C(C)CC1 (stereo unspecified)
- zone of inhibition at 34 µg/disc (Microbotryum violaceum [34]): 0 mm
- zone of inhibition at 34 µg/disc (Mycotypha microspora [35]): 0 mm
- zone of inhibition at 34 µg/disc [36]: 0 mm
- zone of inhibition at 34 µg/disc (Fusarium oxysporum [37]): 0 mm
- zone of inhibition at 34 µg/disc (Priestia megaterium [38]): 0 mm
- zone of inhibition at 34 µg/disc (Escherichia coli [39]): 0 mm
- zone of inhibition at 34 µg/disc ([Chlorella] fusca [40]): 3 mm

Structure (SMILES): CC1(C)S[C@@H]2[C@H](NC(=O)Cc3ccccc3)C(=O)N2[C@H]1C(=O)O [PENICILLIN G POTASSIUM]
- zone of inhibition at 85 µg/disc (Priestia megaterium [41]): 20 mm
- zone of inhibition at 85 µg/disc (Escherichia coli [42]): 0 mm

Structure (SMILES): C[C@@H]1CCC23[C@H]1CC[C@@]2(C)C[C@H](C)[C@]3(C)O (stereo partly specified)
- zone of inhibition at 40 µg/disc (Microbotryum violaceum [43]): 0 mm
- zone of inhibition at 40 µg/disc (Mycotypha microspora [44]): 0 mm
- zone of inhibition at 40 µg/disc [45]: 0 mm
- zone of inhibition at 40 µg/disc (Fusarium oxysporum [46]): 0 mm
- zone of inhibition at 40 µg/disc (Priestia megaterium [47]): 0 mm
- zone of inhibition at 40 µg/disc (Escherichia coli [48]): 0 mm
- zone of inhibition at 40 µg/disc ([Chlorella] fusca [49]): 2 mm

Structure (SMILES): C=C1C[C@H](O)[C@H](Br)C(C)(C)[C@]12C=C[C@@](C)(O)CC2 [RIGIDOL]
- zone of inhibition at 45 µg/disc (Microbotryum violaceum [50]): 5 mm
- zone of inhibition at 45 µg/disc (Mycotypha microspora [51]): 4 mm
- zone of inhibition at 45 µg/disc [52]: 0 mm
- zone of inhibition at 45 µg/disc (Fusarium oxysporum [53]): 0 mm
- zone of inhibition at 45 µg/disc (Priestia megaterium [54]): 0 mm
- zone of inhibition at 45 µg/disc (Escherichia coli [55]): 0 mm
- zone of inhibition at 45 µg/disc ([Chlorella] fusca [56]): 0 mm

Structure (SMILES): C=C1CC[C@H](Br)C(C)(C)[C@]12CC=C(C)CC2
- Activity (Priestia megaterium [31]): inactive
- Activity (Escherichia coli [32]): inactive
- Activity ([Chlorella] fusca [33]): inactive
